Assay results taken from ChEMBL document CHEMBL5331094, “Identification of 2,4,5-trisubstituted-2,4-dihydro-3H-1,2,4-triazol-3-one-based small molecules as selective BRD9 binders” (Eur J Med Chem, 2023).

Key:
[1] = target: T1, Bromodomain-containing protein 9 (Homo sapiens) (UniProt Q9H8M2); experiment: Binding affinity of GST-tagged BRD9 domain (unknown origin) to histone H4Ac (1 to 21 residues) assessed as residual binding at 10 uM by alphascreen analysis relative to control
T1 sequence (whole entry): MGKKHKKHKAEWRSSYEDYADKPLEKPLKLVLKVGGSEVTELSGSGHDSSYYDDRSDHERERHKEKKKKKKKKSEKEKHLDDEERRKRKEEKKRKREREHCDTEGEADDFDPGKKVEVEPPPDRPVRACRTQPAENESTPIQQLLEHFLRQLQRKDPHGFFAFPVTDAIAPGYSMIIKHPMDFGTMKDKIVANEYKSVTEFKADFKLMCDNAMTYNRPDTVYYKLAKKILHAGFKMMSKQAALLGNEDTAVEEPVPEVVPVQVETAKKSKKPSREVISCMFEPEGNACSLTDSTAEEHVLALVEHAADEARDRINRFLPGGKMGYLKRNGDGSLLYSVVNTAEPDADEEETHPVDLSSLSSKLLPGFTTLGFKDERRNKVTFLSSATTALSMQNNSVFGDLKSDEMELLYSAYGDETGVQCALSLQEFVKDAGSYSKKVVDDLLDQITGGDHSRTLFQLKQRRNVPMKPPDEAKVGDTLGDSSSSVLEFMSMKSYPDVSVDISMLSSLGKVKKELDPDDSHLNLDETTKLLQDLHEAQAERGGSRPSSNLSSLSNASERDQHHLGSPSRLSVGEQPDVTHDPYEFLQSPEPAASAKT

A-375 = experiment: Cytotoxicity against human A-375 cells assessed as cell viability measured after 24 hrs by MTT assay; assay type: functional, cell-based; details: A-375, 24 h
[2] = target: CREB-binding protein (Homo sapiens) (UniProt Q92793); experiment: Binding affinity of recombinant His-tagged CREBBP (unknown origin) to histone H4Ac (1 to 21 residues) K5/8/12/Ac-Biotin-OH assessed as residual binding at 10 uM incubated for 30 mins by alphascreen analysis relative to control
[3] = target: Bromodomain adjacent to zinc finger domain protein 2B (Homo sapiens) (UniProt Q9UIF8); experiment: Binding affinity of recombinant His-tagged BAZ2B (unknown origin) to histone H3 (1 to 21 residues) K9/14Ac-Biotin-OH assessed as residual binding at 10 uM incubated for 30 mins by alphascreen analysis relative to control
Chain of Bromodomain adjacent to zinc finger domain protein 2B (Homo sapiens) (Q9UIF8 whole entry, the tested form may be a part): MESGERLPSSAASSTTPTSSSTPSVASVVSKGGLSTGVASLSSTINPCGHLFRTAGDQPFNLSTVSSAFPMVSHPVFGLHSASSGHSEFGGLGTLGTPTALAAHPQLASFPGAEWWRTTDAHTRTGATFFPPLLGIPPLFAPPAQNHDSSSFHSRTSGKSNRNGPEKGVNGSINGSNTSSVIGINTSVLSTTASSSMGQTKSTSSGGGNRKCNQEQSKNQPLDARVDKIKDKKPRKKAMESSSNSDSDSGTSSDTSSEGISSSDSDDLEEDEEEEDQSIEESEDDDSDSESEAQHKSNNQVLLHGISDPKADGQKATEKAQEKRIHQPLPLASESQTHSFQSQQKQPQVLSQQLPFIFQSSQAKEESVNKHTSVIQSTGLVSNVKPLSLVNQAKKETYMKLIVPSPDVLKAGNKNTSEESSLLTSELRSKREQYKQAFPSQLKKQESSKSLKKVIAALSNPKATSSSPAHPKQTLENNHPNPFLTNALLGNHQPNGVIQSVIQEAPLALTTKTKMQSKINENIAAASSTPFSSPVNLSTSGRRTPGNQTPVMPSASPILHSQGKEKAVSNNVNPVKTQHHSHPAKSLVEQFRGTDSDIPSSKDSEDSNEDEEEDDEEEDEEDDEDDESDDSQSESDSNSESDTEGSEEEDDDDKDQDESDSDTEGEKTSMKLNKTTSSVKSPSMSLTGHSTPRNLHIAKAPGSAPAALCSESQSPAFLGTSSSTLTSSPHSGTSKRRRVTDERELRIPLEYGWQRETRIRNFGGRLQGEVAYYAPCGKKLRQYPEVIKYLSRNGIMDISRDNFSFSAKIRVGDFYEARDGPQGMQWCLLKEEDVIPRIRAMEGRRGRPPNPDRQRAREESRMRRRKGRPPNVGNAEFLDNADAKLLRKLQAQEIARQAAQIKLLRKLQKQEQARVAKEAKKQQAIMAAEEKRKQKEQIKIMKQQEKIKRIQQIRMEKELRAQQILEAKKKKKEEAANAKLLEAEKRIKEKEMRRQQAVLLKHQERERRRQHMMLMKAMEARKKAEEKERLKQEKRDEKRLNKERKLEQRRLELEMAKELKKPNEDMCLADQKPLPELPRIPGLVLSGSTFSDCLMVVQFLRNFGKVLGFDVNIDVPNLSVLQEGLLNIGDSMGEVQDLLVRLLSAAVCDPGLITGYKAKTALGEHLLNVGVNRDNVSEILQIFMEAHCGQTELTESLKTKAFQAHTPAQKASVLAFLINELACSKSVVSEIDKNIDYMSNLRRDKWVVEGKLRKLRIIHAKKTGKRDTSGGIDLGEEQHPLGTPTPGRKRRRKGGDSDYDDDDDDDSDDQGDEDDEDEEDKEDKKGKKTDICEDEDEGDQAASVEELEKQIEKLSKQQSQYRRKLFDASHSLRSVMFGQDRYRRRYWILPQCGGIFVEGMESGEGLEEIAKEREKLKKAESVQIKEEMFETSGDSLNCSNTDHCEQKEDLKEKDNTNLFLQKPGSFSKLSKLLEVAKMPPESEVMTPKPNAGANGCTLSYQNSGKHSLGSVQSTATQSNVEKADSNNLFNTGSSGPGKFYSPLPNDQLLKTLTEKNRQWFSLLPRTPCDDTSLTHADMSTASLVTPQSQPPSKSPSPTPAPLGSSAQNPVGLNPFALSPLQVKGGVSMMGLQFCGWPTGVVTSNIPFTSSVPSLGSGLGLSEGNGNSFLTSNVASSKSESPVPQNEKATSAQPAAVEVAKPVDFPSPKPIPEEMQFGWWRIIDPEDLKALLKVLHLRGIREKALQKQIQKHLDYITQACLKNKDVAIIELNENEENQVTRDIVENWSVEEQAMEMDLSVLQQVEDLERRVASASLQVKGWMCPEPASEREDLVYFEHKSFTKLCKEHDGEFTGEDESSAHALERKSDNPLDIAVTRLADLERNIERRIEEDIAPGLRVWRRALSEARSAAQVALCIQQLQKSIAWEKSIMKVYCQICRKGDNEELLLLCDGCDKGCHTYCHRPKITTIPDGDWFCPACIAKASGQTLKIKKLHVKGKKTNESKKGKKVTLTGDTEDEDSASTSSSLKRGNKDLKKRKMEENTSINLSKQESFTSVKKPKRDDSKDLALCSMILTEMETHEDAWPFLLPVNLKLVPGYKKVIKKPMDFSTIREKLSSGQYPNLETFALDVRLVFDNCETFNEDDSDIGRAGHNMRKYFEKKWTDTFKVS

[4] = Cytotoxicity against human erythrocytes assessed as cell viability measured after 24 hrs by MTT assay; assay type: toxicity, cell-based, Erythrocyte
[5] = target: Bromodomain-containing protein 2 (Homo sapiens) (UniProt P25440); experiment: Binding affinity of recombinant His-tagged BRD2-BD2 (unknown origin) to histone H4Ac (1 to 21 residues) K5/8/12/Ac-Biotin-OH assessed as residual binding at 10 uM incubated for 30 mins by alphascreen analysis relative to control
Chain of Bromodomain-containing protein 2 (Homo sapiens) (P25440 whole entry, looked up, the tested form may be a part): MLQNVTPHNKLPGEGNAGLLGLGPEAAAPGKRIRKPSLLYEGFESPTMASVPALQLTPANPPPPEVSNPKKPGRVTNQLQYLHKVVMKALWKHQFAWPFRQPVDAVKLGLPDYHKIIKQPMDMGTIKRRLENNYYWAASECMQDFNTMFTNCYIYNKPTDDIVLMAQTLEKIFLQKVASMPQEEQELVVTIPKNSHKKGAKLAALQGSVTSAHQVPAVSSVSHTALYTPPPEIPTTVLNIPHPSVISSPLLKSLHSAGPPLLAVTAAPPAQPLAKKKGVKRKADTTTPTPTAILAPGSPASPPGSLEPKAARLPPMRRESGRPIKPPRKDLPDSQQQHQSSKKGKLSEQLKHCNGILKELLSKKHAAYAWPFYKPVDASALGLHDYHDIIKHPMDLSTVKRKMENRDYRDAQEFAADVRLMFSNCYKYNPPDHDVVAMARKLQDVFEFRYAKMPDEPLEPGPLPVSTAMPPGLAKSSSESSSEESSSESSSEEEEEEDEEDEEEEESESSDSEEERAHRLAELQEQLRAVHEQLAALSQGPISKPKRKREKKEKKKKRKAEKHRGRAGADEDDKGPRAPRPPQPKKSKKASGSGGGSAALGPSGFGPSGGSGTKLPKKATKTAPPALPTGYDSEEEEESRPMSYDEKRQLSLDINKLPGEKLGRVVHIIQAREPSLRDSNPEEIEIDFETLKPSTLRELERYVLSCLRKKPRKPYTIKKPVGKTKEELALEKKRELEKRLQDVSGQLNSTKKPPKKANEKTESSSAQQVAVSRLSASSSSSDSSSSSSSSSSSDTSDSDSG

[6] = target: Bromodomain-containing protein 3 (Homo sapiens) (UniProt Q15059); experiment: Binding affinity of recombinant His-tagged BRD3-BD1 (unknown origin) to histone H4Ac (1 to 21 residues) K5/8/12/Ac-Biotin-OH assessed as residual binding at 10 uM incubated for 30 mins by alphascreen analysis relative to control
Chain of Bromodomain-containing protein 3 (Homo sapiens) (Q15059 2-726 limits assumed): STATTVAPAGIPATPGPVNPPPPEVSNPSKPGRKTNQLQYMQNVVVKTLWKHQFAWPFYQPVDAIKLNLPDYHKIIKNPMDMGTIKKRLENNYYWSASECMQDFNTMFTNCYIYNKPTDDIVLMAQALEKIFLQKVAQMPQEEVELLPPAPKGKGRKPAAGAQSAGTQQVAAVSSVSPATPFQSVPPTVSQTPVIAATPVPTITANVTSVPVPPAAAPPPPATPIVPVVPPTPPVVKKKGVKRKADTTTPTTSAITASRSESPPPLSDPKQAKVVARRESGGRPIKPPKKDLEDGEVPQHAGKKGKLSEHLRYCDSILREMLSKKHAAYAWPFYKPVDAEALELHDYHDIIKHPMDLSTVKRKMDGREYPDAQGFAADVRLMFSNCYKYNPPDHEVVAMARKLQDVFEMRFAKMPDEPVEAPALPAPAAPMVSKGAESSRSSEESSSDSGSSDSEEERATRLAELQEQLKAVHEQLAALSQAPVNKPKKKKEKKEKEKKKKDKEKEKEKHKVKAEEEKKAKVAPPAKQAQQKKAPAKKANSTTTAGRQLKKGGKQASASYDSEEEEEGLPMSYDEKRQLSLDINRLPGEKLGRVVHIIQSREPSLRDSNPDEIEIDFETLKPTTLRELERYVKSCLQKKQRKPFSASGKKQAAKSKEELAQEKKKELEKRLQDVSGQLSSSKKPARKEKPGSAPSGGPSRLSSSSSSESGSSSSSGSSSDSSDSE

MCF7 = experiment: Cytotoxicity against human MCF7 cells assessed as cell viability measured after 24 hrs by MTT assay; assay type: functional, cell-based; details: MCF7, 24 h
Caco-2 = experiment: Cytotoxicity against human Caco-2 cells assessed as cell viability measured after 24 hrs by MTT assay; assay type: functional, cell-based; details: Caco-2, 24 h
[7] = target: Bromodomain-containing protein 4 (Homo sapiens) (UniProt O60885); experiment: Binding affinity of recombinant His-tagged BRD4-BD1 (unknown origin) to histone H4Ac (1 to 21 residues) K5/8/12/Ac-Biotin-OH assessed as residual binding at 10 uM incubated for 30 mins by alphascreen analysis relative to control
[8] = target: T2, Bromodomain-containing protein 9 (Homo sapiens, UniProt Q9H8M2); experiment: Inhibition of BRD9 (unknown origin) by alpha screen analysis
T2 sequence (Q9H8M2 whole entry): T1 sequence (whole entry)

[9] = target: Bromodomain-containing protein 4 (Homo sapiens) (UniProt O60885); experiment: Binding affinity of recombinant His-tagged BRD4-BD2 (unknown origin) to histone H4Ac (1 to 21 residues) K5/8/12/Ac-Biotin-OH assessed as residual binding at 10 uM incubated for 30 mins by alphascreen analysis relative to control
Jurkat = experiment: Cytotoxicity against human Jurkat cells assessed as cell viability measured after 24 hrs by MTT assay; assay type: functional, cell-based
HaCaT = experiment: Cytotoxicity against human HaCaT cells assessed as cell viability measured after 24 hrs by MTT assay; assay type: functional, cell-based
[10] = target: Bromodomain-containing protein 3 (Homo sapiens) (UniProt Q15059); experiment: Binding affinity of recombinant His-tagged BRD3-BD2 (unknown origin) to histone H4Ac (1 to 21 residues) K5/8/12/Ac-Biotin-OH assessed as residual binding at 10 uM incubated for 30 mins by alphascreen analysis relative to control
[11] = target: Bromodomain-containing protein 2 (Homo sapiens) (UniProt P25440); experiment: Binding affinity of recombinant His-tagged BRD2-BD1 (unknown origin) to histone H4Ac (1 to 21 residues) K5/8/12/Ac-Biotin-OH assessed as residual binding at 10 uM incubated for 30 mins by alphascreen analysis relative to control
[12] = target: Bromodomain testis-specific protein (Homo sapiens) (UniProt Q58F21); experiment: Binding affinity of recombinant His-tagged BRDT-BD1 (unknown origin) to histone H4Ac (1 to 21 residues) K5/8/12/Ac-Biotin-OH assessed as residual binding at 10 uM incubated for 30 mins by alphascreen analysis relative to control

CCc1n[nH]c(=O)n1-c1ccc(C)c(Cl)c1
Activity [1]: 97.5%

CCc1nn(C)c(=O)n1-c1cccc(C(F)(F)F)c1
Activity [1]: 76.5%

Cc1ccc(-n2c(C)n[nH]c2=O)cc1
Activity [1]: > 100%

COc1ccc(-n2c(C)nn(C)c2=O)cc1OC
IC50 (A-375): 450 µM
Activity [2]: 96.3%
Activity [1]: 28.1%
Activity [3]: > 100%
IC50 at 24 h [4]: > 500 µM
Activity [5]: > 100%
Activity [6]: > 100%
IC50 (MCF7): > 500 µM
IC50 (Caco-2): 300 µM
Activity [7]: > 100%
IC50 [8]: 0.35 µM
Activity [9]: 94.7%
IC50 (Jurkat): 110 µM
IC50 (HaCaT): > 500 µM
Activity [10]: > 100%
Activity [11]: 96.5%
Activity [12]: > 100%

CCc1nn(CC)c(=O)n1-c1ccc(OC)c(OC)c1
Activity [1]: > 100%

CCc1n[nH]c(=O)n1-c1ccc(OC)c(OC)c1
Activity [1]: 96.9%

CCc1n[nH]c(=O)n1-c1cccc(C(F)(F)F)c1
Activity [1]: 96.1%

Cc1nn(C)c(=O)n1C1CCCCC1
Activity [1]: 77.9%

Cc1cc(-n2c(C)n[nH]c2=O)ccc1F
Activity [1]: > 100%

Cc1n[nH]c(=O)n1-c1ccc(F)c(C(F)(F)F)c1
Activity [1]: 97.8%

CCn1nc(C)n(-c2ccc(F)c(Cl)c2)c1=O
IC50 (A-375): 450 µM
Activity [2]: > 100%
Activity [1]: 41.2%
Activity [3]: > 100%
IC50 at 24 h [4]: > 500 µM
Activity [5]: > 100%
Activity [6]: > 100%
IC50 (MCF7): > 500 µM
IC50 (Caco-2): > 500 µM
Activity [7]: 99%
IC50 [8]: 4.01 µM
Activity [9]: > 100%
IC50 (Jurkat): > 500 µM
IC50 (HaCaT): > 500 µM
Activity [10]: 93.3%
Activity [11]: 98.2%
Activity [12]: 98.3%

CCc1nn(CC)c(=O)n1-c1ccc2c(c1)OCO2
Activity [1]: 91.2%

CCc1n[nH]c(=O)n1-c1ccc(Cl)c(F)c1
Activity [1]: 91.8%

CCc1n[nH]c(=O)n1-c1ccc(C)c(C)c1
Activity [1]: 97.2%

Cc1cccc(-n2c(C)n[nH]c2=O)c1
Activity [1]: > 100%

CCn1nc(C)n(-c2ccc3c(c2)OCO3)c1=O
IC50 (A-375): > 500 µM
Activity [2]: > 100%
Activity [1]: 35.6%
Activity [3]: 97.5%
IC50 at 24 h [4]: > 500 µM
Activity [5]: > 100%
Activity [6]: 74.8%
IC50 (MCF7): > 500 µM
IC50 (Caco-2): > 500 µM
Activity [7]: 96.2%
IC50 [8]: 5.44 µM
Activity [9]: 99.2%
IC50 (Jurkat): > 500 µM
IC50 (HaCaT): > 500 µM
Activity [10]: 99.9%
Activity [11]: > 100%
Activity [12]: > 100%

COc1ccc(-n2c(C)nnc2O)cc1OC
Activity [1]: 73.6%

CCc1nn(C)c(=O)n1C1CCCCC1
Activity [1]: 64.3%

Cc1nn(C)c(=O)n1-c1ccc2c(c1)OCO2
IC50 (A-375): 400 µM
Activity [2]: > 100%
Activity [1]: 58.8%
Activity [3]: 92.8%
IC50 at 24 h [4]: > 500 µM
Activity [5]: 94.4%
Activity [6]: 97.3%
IC50 (MCF7): 400 µM
IC50 (Caco-2): 370 µM
Activity [7]: > 100%
IC50 [8]: 11.1 µM
Activity [9]: 99.3%
IC50 (Jurkat): 290 µM
IC50 (HaCaT): > 500 µM
Activity [10]: 94.9%
Activity [11]: > 100%
Activity [12]: 92.5%

CCc1nn(C)c(=O)n1-c1ccc(OC)c(OC)c1
IC50 (A-375): 480 µM
Activity [2]: > 100%
Activity [1]: 38.1%
Activity [3]: > 100%
IC50 at 24 h [4]: > 500 µM
Activity [5]: 96.7%
Activity [6]: 97.3%
IC50 (MCF7): > 500 µM
IC50 (Caco-2): > 500 µM
Activity [7]: > 100%
IC50 [8]: 4.13 µM
Activity [9]: 89.4%
IC50 (Jurkat): 420 µM
IC50 (HaCaT): > 500 µM
Activity [10]: 97.7%
Activity [11]: > 100%
Activity [12]: 95.6%

Cc1cccc(-n2c(C)nn(C)c2=O)c1
Activity [1]: 86.7%

CCc1nn(C)c(=O)n1-c1ccc(F)c(Cl)c1
IC50 (A-375): 500 µM
Activity [2]: > 100%
Activity [1]: 24.3%
Activity [3]: > 100%
IC50 at 24 h [4]: > 500 µM
Activity [5]: > 100%
Activity [6]: > 100%
IC50 (MCF7): > 500 µM
IC50 (Caco-2): > 500 µM
Activity [7]: 99.2%
IC50 [8]: 1.86 µM
Activity [9]: > 100%
IC50 (Jurkat): 225 µM
IC50 (HaCaT): > 500 µM
Activity [10]: 98.3%
Activity [11]: > 100%
Activity [12]: 98.2%

Cc1nn(C)c(=O)n1-c1ccc(F)c(C(F)(F)F)c1
Activity [1]: 85.3%

CCc1n[nH]c(=O)n1-c1ccc(F)c(C)c1
Activity [1]: 94.9%

CCn1nc(C)n(-c2ccc(OC)c(OC)c2)c1=O
IC50 (A-375): 400 µM
Activity [2]: > 100%
Activity [1]: 50.8%
Activity [3]: > 100%
IC50 at 24 h [4]: > 500 µM
Activity [5]: > 100%
Activity [6]: 97.8%
IC50 (MCF7): 360 µM
IC50 (Caco-2): 300 µM
Activity [7]: 99.2%
IC50 [8]: 7.62 µM
Activity [9]: > 100%
IC50 (Jurkat): 315 µM
IC50 (HaCaT): > 500 µM
Activity [10]: > 100%
Activity [11]: > 100%
Activity [12]: 97.9%

Cc1nn(C)c(=O)n1-c1ccc(C(C)(C)C)cc1
Activity [1]: 95.7%

CCc1n[nH]c(=O)n1-c1ccc2c(c1)OCO2
Activity [1]: 84.6%

Cc1nnc(O)n1-c1ccc(C(C)(C)C)cc1
Activity [1]: > 100%

CCc1nn(CC)c(=O)n1-c1cccc(C(F)(F)F)c1
IC50 (A-375): > 500 µM
Activity [2]: > 100%
Activity [1]: 39.4%
Activity [3]: > 100%
IC50 at 24 h [4]: > 500 µM
Activity [5]: > 100%
Activity [6]: > 100%
IC50 (MCF7): 490 µM
IC50 (Caco-2): > 500 µM
Activity [7]: 97.7%
IC50 [8]: 2.49 µM
Activity [9]: > 100%
IC50 (Jurkat): 270 µM
IC50 (HaCaT): > 500 µM
Activity [10]: 97.4%
Activity [11]: 99%
Activity [12]: 98.3%

CCc1nn(C)c(=O)n1-c1ccc(C)c(C)c1
Activity [1]: 85.1%

CCc1nn(CC)c(=O)n1-c1ccc(F)c(Cl)c1
Activity [1]: 86.6%

CCc1ccc(-n2c(CC)n[nH]c2=O)cc1
Activity [1]: 97.1%
